From patent publication US5408036A, “Isolated metallopolypeptide: compositions and synthetic methods” (The Scripps Research Institute, priority 1993, dated 1995)
Values joined by “and” are separate entries in the source; they are usually repeats but may differ in a detail not shown here. Equal values may be shown once. Values belong to the compound of their own block, whether it stands above or below them. Residues, ends and D or L forms follow the SMILES beside them. No end group written: not given here. *: point of attachment. 5‑carboxyl‑2,2'‑bipyridine = O=C(c1ccc(-c2ccccn2)nc1)*

Experiments:
[1] = CD titration: dependence of [θ]222 on free metal ion concentration, ZnCl2; format: binding; conditions: CD analysis, ZnCl2
Excerpt: (§1) FIG. 4 illustrates the dependence of mean residue molar ellipticity at 222 nm ([.THETA.]222 ×10^-3) of peptides SEQ ID NO's:2 AND 3 on the concentration of free metal ions when measured as described in Example 3A(2).
(§2) The peptide metal salt solution admixtures prepared as in Example 2A were subjected to CD analyses according to published procedures to measure the degree of stability induced by metal ion complexation with peptides. Greenfield et al., Biochem, 8:4108 (1969) and Johnson, Ann. Rev. Biophvs. Chem., 17:145 (1988). All CD data reported herein have an uncertainty of ±2 to 5% for a 100% helix, [θ]222 =-35,000, and are based on several CD measurements of both peptides SEQ ID NO's:2 and 3 in the presence and absence of metal ions in various TFE/H20 mixtures at -10° to 20° C.
(§3) Both Cu(II) and Zn(II) bound peptide SEQ ID NO:3 with similar affinities and increased the helical content to the same extent.

[2] = Metal ion selectivity and relative affinities by CD analysis; format: binding; conditions: for metal ion(s) that preferentially stabilize the peptide: summary of Example 3A(2), 3A(3); for metal ions bound, order of affinity: peptide SEQ ID NO:11 at pH 6.0
Excerpt: Metal ion selectivity is an expected consequence of site specific metal-ligand interaction. The extent of helical induction, to a first approximation, depends on the affinity of metal ion toward the ligands employed, and on the compatibility of metal ion geometry and coordination sphere with the alpha-helical conformation. Thus, although numerous metal ions can induce and stabilize alpha-helix formation, the metal ion having the greatest relative affinity for the ligands employed is preferred and can readily be determined. […]
Peptides, prepared as in Example 1, and admixed with various metal salt solutions as described in Example 2B, were subjected to CD analysis to characterize metal ion selectivity with respect to the position of the metal binding site in the alpha-helical sequence.

[3] = CD titration: dependence of [θ]222 on free metal ion concentration, CdCl2; format: binding; conditions: CdCl2, pH 8.0; peptide 5.9×10^-6M in 10 mM sodium borate, 0.5 mM mercaptoethanol, 21° C.
Excerpt: as §1, §2, §3

[4] = Circular dichroism (CD) to measure degree of secondary structure (alpha-helicity); format: physicochemical; conditions: for helicity / θ: using Cu(II)
Method: ID No's. 3 and 4. The analysis was performed as described above.
Proton nuclear magnetic resonance spectra were recorded at 300MHz on Bruker AM300 spectrometer and are reported in parts per million (ppm) downfield from Me4 Si. Ultraviolet-visible spectra were recorded on Aviv Associates 14DS and Milton Roy Spectronic 3000 Array spectrometers. Circular dichroism measurements were made on Aviv Associates 62DS spectrometer equipped with a thermostable cell holder using 10, 1, and 0.1 mm Hellma quartz cells. All reported CD data have an uncertainty of ±2-5%. All ellipticity measurements are expressed as mean residue ellipticity, [θ], having the units deg·cm^2 ·dmol-^1.

[5] = Heat denaturation assay to measure melting temperatures; format: physicochemical
Method: In order to assess differences in helix stability between the metal ion complexed and uncomplexed forms of peptides Seq. ID No's. 3 and 4, the conformational stability of each peptide in the presence and absence of transition metal ions was determined from heat denaturation studies according to published procedures. Pace et al., In Protein structure, p. 311., IRL Press, (1989). The analysis of the thermal denaturation curves afforded linear ΔG vs. T and van't Hoff plots. […] Complexed peptides Seq. ID No's.
Because tris-bipyridyl-metal ion coordination complexes are chiral and can form either a left-handed or a right-handed helix, two diastereomeric tri-helical structures can possibly be formed. The stereogenic environment of the ensuing parallel tri-helical topology as well as the geometrical constraints imposed by the overall C3 symmetry of the coordination complex was expected, however, to enforce a high degree of diastereoselectivity in the assembly process. The CD spectrum (in the region of 280 and 330 nm) of the peptide in the presence of Ni(II) indicated the formation of one diastereomer having a left-handed helical configuration. Such a behavior is also consistent with the expected left handed supercoil of the tri-helical metallopolypeptide. The analysis of the thermal denaturation curves for the metallopolypeptide in the presence of Ni(II) yielded linear ΔG vs T and van't Hoff plots.

[6] = Aqueous solubility of the peptide; format: physicochemical
Method: The peptide, in the absence of a metal ion, was readily soluble (up to about 2 mg/ml, 1.3 mM) in aqueous media at a pH value of from about 4 to about 9.

[7] = Concentration dependence of ellipticity at 222 nm, monomer-nmer equilibria; format: physicochemical; conditions: absence of added metal ions; nonlinear regression MINSQ
Method: Data (Δ) were analyzed according to monomer-.eta.mer equilibria using the equation below, where Pn, Pmon, and PT are the self-associated, monomeric, and total concentrations of the peptides, respectively, n is the degree of association, θmon is the ellipticity of the monomer, and θn is the ellipticity of the self-associated form of the peptide. The values of n=1.95, θmon =-10,100, θn =-27,900, and Kdiss =6.4×10^-4 were determined by the nonlinear regression program MINSQ. [formula]

[8] = with CdCl2 (solution 8, 7.3×10^-4 M), water, 4° C.
[9] = Ni(II) or Co(II) ions plus 150 mM NaCl
[10] = absence of any polyvalent metal ion, 7.4 μM in 5 mM sodium borate, pH 6.4, 21° C.
[11] = presence of Ni(II) or Co(II) ions, similar conditions (5 mM sodium borate, pH 6.4, 21° C.)

Compound: CC[C@H](C)[C@H](NC(=O)[C@H](Cc1ccc(O)cc1)NC(=O)[C@@H](NC(=O)[C@H](Cc1c[nH]cn1)NC(=O)CNC(=O)[C@@H]1CCCN1C(=O)[C@H](Cc1c[nH]cn1)NC(=O)[C@@H](NC(=O)[C@H](CO)NC(=O)[C@H](CC(C)C)NC(=O)[C@H](CS)NC(C)=O)C(C)C)[C@@H](C)O)C(=O)N[C@@H](CCC(N)=O)C(=O)N[C@@H](CS)C(N)=O [peptide SEQ ID NO:19] (Ac-CLSVHPGHTYIQC-NH2)
- solubility ([6]; aqueous media, water, absence of a metal ion, pH about 4 to about 9): ≥ 2000 µg/mL and ≥ 1300 µM
- decrease of aqueous solubility in the presence of Zn ([6]; pH values greater than about 5.0): about 100 fold
- CD spectrum, structure indicated ([4]; absence of added Zn, about 6.0×10^-6 M in Na borate, pH 7.5): random-coiled structure
- CD spectrum, structure indicated ([4]; one equivalent of Zn added): beta-turn structure

Compound: -Gly-Glu-Leu-Ala-Glu-Gln-Lys-Leu-Glu-Gln-Ala-Leu-Gln-Lys-Leu-Ala ({5‑carboxyl‑2,2'‑bipyridine}-GELAEQKLEQALQKLA) [peptide of Example 4]
- θmon, ellipticity of the monomer [7]: -10,100
- θn, ellipticity of the self-associated form [7]: -27,900
- alpha-helicity [4, 9]: 80%
- θ222 [4, 9]: -25,800 deg·cm2·dmol^-1
- alpha-helicity [4, 10]: 30%
- θ222 [4, 10]: -10,000 deg·cm^2·dmol^-1
- alpha-helicity [4, 11]: greater than 70%
- θ222 [4, 11]: -23,400 degcm^2 dmol^-1

Compound: Ac--Ala--Ala--Xaa2 --Ala--Leu--Glu--Xaa2 --Gln--Ala--Lys--Ala--Leu--Lys--Glu--Ala--Ala--Gln--Lys--Ala--CONH2 [peptide SEQ ID NO:11, Xaa2 = (NH2)(CO2 H)CH(CH2)3 N(CH2 CO2 H)2]
- metal ions bound, order of affinity ([2]; CD analysis): Cu(II), Hg(II), Cd(II), Fe(II), Zn(II) and Pb(II) in descending order of affinity
- metal ion(s) that preferentially stabilize the peptide [2]: Cu(II)
- helicity ([4]; 0° C.): about 100%
- θ ([4]; 0° C.): 35,600
- helicity ([4]; 20° C.): about 80%
- θ ([4]; 20° C.): 29,300

Compound: Ru(III)-peptide SEQ ID NO:3 complex: exchange-inert macrocyclic cis-[Ru(NH3)4 (L)2 ]^3+ complex of peptide SEQ ID NO:3 through two His residues at i and i+4 (AEAAAKEAAAKHAAAHA; Ru(III) tetraammine macrocyclic complex via two His)
- melting temperature (Tm) [5]: 35 °C
- alpha-helicity ([4]; room temperature in water): > 80%
- θ222 ([4]; room temperature in water): -28,000

Now from value to compound, other results behind:

- metal ion(s) that preferentially stabilize the peptide [2]: Cu(II) and Zu(II)
- Kd [3]: 56 µM
- alpha-helicity ([4]; absence of metal ion (solution 7), water pH 6.65, 4° C.): 54%
- dependence of CD spectra on peptide concentration ([4]; presence and absence of metal ions, 0.5-70 μM): independent of the peptide concentration
- alpha-helicity [4, 8]: up to 90%
- θ222 [4, 8]: -31,500
Compound: CC(=O)N[C@@H](C)C(=O)N[C@@H](CCC(=O)O)C(=O)N[C@@H](C)C(=O)N[C@@H](C)C(=O)N[C@@H](C)C(=O)N[C@@H](CCCCN)C(=O)N[C@@H](CCC(=O)O)C(=O)N[C@@H](C)C(=O)N[C@@H](C)C(=O)N[C@@H](C)C(=O)N[C@@H](CCCCN)C(=O)N[C@@H](CS)C(=O)N[C@@H](C)C(=O)N[C@@H](C)C(=O)N[C@@H](C)C(=O)N[C@@H](Cc1c[nH]cn1)C(=O)N[C@@H](C)C(N)=O [peptide SEQ ID NO:2, Ac--Ala--Glu--Ala--Ala--Ala--Lys--Glu--Ala--Ala--Ala--Lys--Cys--Ala--Ala--Ala--His--Ala--CONH2] (Ac-AEAAAKEAAAKCAAAHA-NH2)
- effect of Zn(II) on helical content [1]: no effect
- metal ion selectivity ([2]; CD analysis, CdCl2 vs ZnCl2): Cd(II) selective
- dependence of helicity on added NaF ([4]; NaF up to 250 mM, 5 mM sodium borate): independent of concentration of added NaF up to 250 mM

- metal ion(s) that preferentially stabilize the peptide [2]: Ni(II)
- melting temperature (Tm) [5]: -15.5 °C
- CD spectrum, structure indicated ([4]; room temperature in water): random coil structure
Compound: CC(=O)N[C@@H](C)C(=O)N[C@@H](CCC(=O)O)C(=O)N[C@@H](C)C(=O)N[C@@H](C)C(=O)N[C@@H](C)C(=O)N[C@@H](CCCCN)C(=O)N[C@@H](Cc1c[nH]cn1)C(=O)N[C@@H](C)C(=O)N[C@@H](C)C(=O)N[C@@H](C)C(=O)N[C@@H](Cc1c[nH]cn1)C(=O)N[C@@H](CCC(=O)O)C(=O)N[C@@H](C)C(=O)N[C@@H](C)C(=O)N[C@@H](C)C(=O)N[C@@H](CCCCN)C(=O)N[C@@H](C)C(N)=O [peptide SEQ ID NO:4, Ac--Ala--Glu--Ala--Ala--Ala--Lys--His--Ala--Ala--Ala--His--Glu--Ala--Ala--Ala--Lys--Ala--CONH2] (Ac-AEAAAKHAAAHEAAAKA-NH2)
- metal ions bound, order of affinity ([2]; CD analysis): Ni(II) and Cu(II) predominantly followed by Cd(II) then Zn(II)

- binding of Cd(II) or Zn(II) ([2]; CD analysis): no significant binding
- metal ion(s) that preferentially stabilize the peptide [2]: Ni(II)
Compound: CC(=O)N[C@@H](C)C(=O)N[C@@H](Cc1c[nH]cn1)C(=O)N[C@@H](C)C(=O)N[C@@H](C)C(=O)N[C@@H](C)C(=O)N[C@@H](Cc1c[nH]cn1)C(=O)N[C@@H](CCC(=O)O)C(=O)N[C@@H](C)C(=O)N[C@@H](C)C(=O)N[C@@H](C)C(=O)N[C@@H](CCCCN)C(=O)N[C@@H](CCC(=O)O)C(=O)N[C@@H](C)C(=O)N[C@@H](C)C(=O)N[C@@H](C)C(=O)N[C@@H](CCCCN)C(=O)N[C@@H](C)C(N)=O [peptide SEQ ID NO:5, Ac--Ala--His--Ala--Ala--Ala--His--Glu--Ala--Ala--Ala--Lys--Glu--Ala--Ala--Ala--Lys--Ala--CONH2] (Ac-AHAAAHEAAAKEAAAKA-NH2)
- metal ions bound, order of affinity ([2]; CD analysis): Ni(II) and Cu(II) in descending order of affinity
